Data reported in patent publication US20260232666A1, “COMPOSITIONS AND METHODS FOR INHIBITION OF RAS” (TheRas, Inc., priority 2023, published 2026).

What was measured:
pERK in NCI-H358 cells = experiment: Cell-based pERK HTRF assay (pERK inhibition in H358 cells); details: 30 min incubation
In short: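 NCI-H358 cells were seeded at 4×10^4 cells/well in RPMI/10% FBS, then treated next day for 30 min at 0.25% DMSO (9-point, 3-fold series from 75 μM). Lysates were read by HTRF (d2/Eu cryptate antibody pair, 615 nm emission) after 4–24 h at room temperature to give pERK IC50.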

[1] = biological target: T1, GppNHp-loaded KRAS4b (amino acids 1-169) G12C/C118S protein (Homo sapiens, UniProt P01116, C118S/G12C); experiment: Covalent cysteine 12 modification by MALDI-TOF MS, GppNHp-loaded KRAS G12C; format: binding; details: 15 minutes reaction time point
T1 construct: KRAS4b (amino acids 1-169) G12C/C118S protein; made in house
In short: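 1 μM GppNHp-, GTP- or GDP-loaded KRAS4b (1-169) G12C/C118S in 20 mM HEPES, 150 mM NaCl, 1 mM MgCl2, pH 7.3, at 1:2.5 protein:compound, room temperature in the dark. Percent Cys12 modification from MALDI-TOF peak heights (adduct/total protein), reported at 15 min.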

Compound | IC50 (pERK in NCI-H358 cells; Homo sapiens, NCI-H358, 0.5 h) [nM] | GppNHp-KRAS G12C percent of modification [1] | IC50 (pERK in NCI-H358 cells) [nM]
C=CC(=O)N1CC[C@@H](N(C)c2nc(OC[C@@]34CCCN3C[C@H](F)C4)nc3c(F)c(-c4ccc(F)c5sc(N)c(C#N)c45)c(Cl)cc23)[C@@H]1C (atropisomer, axis not shown) [Compound 68] | < 100 | A (percent of modification ≥70%) | 
C=CC(=O)N1CC[C@@H](N(C)c2nc(OC[C@@]34CCCN3C[C@H](F)C4)nc3c(F)c(-c4ccc(F)c5sc(N)c(C#N)c45)c(Cl)cc23)[C@@H]1C (atropisomer, axis not shown) [Compound 69] |  | D (percent of modification <10%) | 100 to 1000
C=CC(=O)N1CCC(N(C)c2nc(OC[C@@H]3CCCN3C3CC3)nc3c(F)c(-c4ccc(F)c5sc(N)c(C#N)c45)c(C(F)(F)F)cc23)[C@H]1C (stereo partly drawn) [Compound 1] | 100 to 1000 | C (10%≤percent of modification <50%) | 
C=CC(=O)N1CCC(N(C)c2nc(OC[C@@]34CCCN3C[C@H](F)C4)nc3c(F)c(-c4ccc(F)c5sc(N)c(C#N)c45)c(Cl)cc23)[C@H]1CC (stereo partly drawn) [Compound 2] | < 100 | D (percent of modification <10%) | 
C=CC(=O)N1CCC(N(C)c2nc(OC[C@@]34CCCN3C[C@H](F)C4)nc3c(F)c(-c4ccc(F)c5sc(N)c(C#N)c45)c(C(F)(F)F)cc23)[C@H]1CC (stereo partly drawn) [Compound 3] | < 100 | C (10%≤percent of modification <50%) | 
C=CC(=O)N1C[C@H]2C[C@@H]1CN2c1nc(OC[C@@]23CCCN2C[C@H](F)C3)nc2c(F)c(-c3ccc(F)c4sc(N)c(C#N)c34)c(C(F)(F)F)cc12 [Compound 37] | 100 to 1000 | D (percent of modification <10%) | 
C=CC(=O)N1CC[C@@H](N(CC)c2nc(OC[C@@]34CCCN3C[C@H](F)C4)nc3c(F)c(-c4ccc(F)c5sc(N)c(C#N)c45)c(C(F)(F)F)cc23)[C@H]1CC [Compound 39] | < 100 | C (10%≤percent of modification <50%) | 
C=CC(=O)N1CC[C@@H](N(CC)c2nc(OC[C@@]34CCCN3C[C@H](F)C4)nc3cc(-c4ccc(F)c5sc(N)c(C#N)c45)c(C#N)cc23)[C@@H]1CC [Compound 40] | 100 to 1000 | D (percent of modification <10%) | 
C=CC(=O)N1CC[C@@H](N(CC)c2nc(OC[C@@]34CCCN3C[C@H](F)C4)nc3cc(-c4ccc(F)c5sc(N)c(C#N)c45)c(F)cc23)[C@@H]1CC [Compound 41] | 100 to 1000 | D (percent of modification <10%) | 
C=CC(=O)N1CC[C@@H](N(C)c2nc(OC[C@@]34CCCN3C[C@H](F)C4)nc3cc(-c4ccc(F)c5sc(N)c(C#N)c45)c(C#N)cc23)[C@H]1CC [Compound 42] | < 100 | A (percent of modification ≥70%) | 
C=CC(=O)N1CC[C@@H](N(CC)c2nc(OC[C@@H]3C[C@@H](OC)CN3C)nc3c(F)c(-c4ccc(F)c5sc(N)c(C#N)c45)c(C(F)(F)F)cc23)[C@H]1C [Compound 45, 4-(4-(((2R,3R)-1-acryloyl-2-methylpyrrolidin-3-yl)(ethyl)amino)-8-fluoro-2-(((2S,4R)-4-methoxy-1-methylpyrrolidin-2-yl)methoxy)-6-(trifluoromethyl)quinazolin-7-yl)-2-amino-7-fluorobenzo[b]thiophene-3-carbonitrile] | < 100 | A (percent of modification ≥70%) | 
C=CC(=O)N1CC2CC(C1)N2c1nc(OC[C@@]23CCCN2C[C@H](F)C3)nc2c(F)c(-c3ccc(F)c4sc(N)c(C#N)c34)c(C(F)(F)F)cc12 [Compound 46] | 100 to 1000 | D (percent of modification <10%) | 
C=CC(=O)N1CC2CCC(C1)N2c1nc(OC[C@@]23CCCN2C[C@H](F)C3)nc2c(F)c(-c3ccc(F)c4sc(N)c(C#N)c34)c(C(F)(F)F)cc12 [Compound 49] | < 100 | C (10%≤percent of modification <50%) | 
C=CC(=O)N1CC[C@@H](N(CC)c2nc(OC[C@@]34CCCN3C[C@H](F)C4)nc3c(F)c(-c4ccc(F)c5sc(N)c(C#N)c45)ccc23)[C@@H]1CC [Compound 50] | 100 to 1000 | D (percent of modification <10%) | 
C=CC(=O)N1CC[C@@H](N(CC)c2nc(OC[C@@H]3C[C@@H](F)CN3C)nc3c(F)c(-c4ccc(F)c5sc(N)c(C#N)c45)c(C(F)(F)F)cc23)[C@H]1C [Compound 52] |  | B (50≤percent of modification <70%) | < 100
C=CC(=O)N1CC[C@@H](N(C)c2nc(OC[C@@H]3C[C@@H](F)CN3C)nc3c(F)c(-c4ccc(F)c5sc(N)c(C#N)c45)c(C(F)(F)F)cc23)[C@H]1C [Compound 55] | < 100 | A (percent of modification ≥70%) | 
C=CC(=O)N1CC[C@@H](N(CC)c2nc(OC[C@@]34CCCN3C[C@H](F)C4)nc3cc(-c4ccc(F)c5sc(N)c(C#N)c45)c(C#N)cc23)[C@@H]1C [Compound 56] | < 100 | B (50≤percent of modification <70%) | 
C=CC(=O)N1CC[C@@H](N(CC)c2nc(OC[C@@]34CCCN3C[C@H](F)C4)nc3c(F)c(-c4ccc(F)c5sc(N)c(C#N)c45)ccc23)[C@@H]1C [Compound 57] | < 100 | B (50≤percent of modification <70%) | 
C=CC(=O)N1CC[C@@H](N(CC)c2nc(OC[C@@H]3CCCN3C)nc3c(F)c(-c4ccc(F)c5sc(N)c(C#N)c45)c(Cl)cc23)[C@H]1C [Compound 58] | < 100 | A (percent of modification ≥70%) | 
C=CC(=O)N1CC[C@@H](N(C)c2nc(OC[C@@H]3CCCN3C)nc3c(F)c(-c4ccc(F)c5sc(N)c(C#N)c45)c(Cl)cc23)[C@H]1C [Compound 59] |  | A (percent of modification ≥70%) | < 100
C=CC(=O)N1CC[C@@H](N(CC)c2nc(OC[C@@H]3C[C@@H](F)CN3C)nc3c(F)c(-c4ccc(F)c5sc(N)c(C#N)c45)c(Cl)cc23)[C@H]1C [Compound 60] | < 100 | B (50≤percent of modification <70%) | 
C=CC(=O)N1CC[C@@H](N(C)c2nc(OC[C@@H]3C[C@@H](F)CN3C)nc3c(F)c(-c4ccc(F)c5sc(N)c(C#N)c45)c(Cl)cc23)[C@H]1C [Compound 61] | < 100 | C (10%≤percent of modification <50%) | 
C=CC(=O)N1CC[C@@H](N(C)c2nc(OC[C@@H]3C[C@@H](OC)CN3C)nc3c(F)c(-c4ccc(F)c5sc(N)c(C#N)c45)c(Cl)cc23)[C@H]1C [Compound 63, 4-(4-(((2R,3R)-1-acryloyl-2-methylpyrrolidin-3-yl)(methyl)amino)-6-chloro-8-fluoro-2-(((2S,4R)-4-methoxy-1-methylpyrrolidin-2-yl)methoxy)quinazolin-7-yl)-2-amino-7-fluorobenzo[b]thiophene-3-carbonitrile] | < 100 | B (50≤percent of modification <70%) | 
C=CC(=O)N1CC[C@@H](N(C)c2nc(OC[C@@H]3CC4(CC4)CN3C)nc3c(F)c(-c4ccc(F)c5sc(N)c(C#N)c45)c(Cl)cc23)[C@H]1C [Compound 64] | < 100 | B (50≤percent of modification <70%) | 
C=CC(=O)N1CC[C@@H](N(CC)c2nc(OC[C@@H]3CC4(CC4)CN3C)nc3c(F)c(-c4ccc(F)c5sc(N)c(C#N)c45)c(C(F)(F)F)cc23)[C@H]1C [Compound 65] | < 100 | A (percent of modification ≥70%) | 
C=CC(=O)N1CC[C@@H](N(CC)c2nc(OC[C@@H]3CCCN3C)nc3c(F)c(-c4ccc(F)c5sc(N)c(C#N)c45)c(C(F)(F)F)cc23)[C@H]1C [Compound 66] | < 100 | A (percent of modification ≥70%) | 
C=CC(=O)N1CC[C@@H](N(C)c2nc(OC[C@@H]3CCCN3C)nc3c(F)c(-c4ccc(F)c5sc(N)c(C#N)c45)c(C(F)(F)F)cc23)[C@H]1C [Compound 67] |  | A (percent of modification ≥70%) | < 100
C=CC(=O)N1CC[C@@H](N(CC)c2nc(OC[C@@H]3C[C@@H](OC)CN3C)nc3c(F)c(-c4ccc(F)c5sc(N)c(C#N)c45)c(Cl)cc23)[C@H]1C [Compound 73] | < 100 | B (50≤percent of modification <70%) | 
C=CC(=O)N1CC[C@@H](N(C)c2nc(OC[C@@H]3CCCN3CC)nc3c(F)c(-c4ccc(F)c5sc(N)c(C#N)c45)c(C(F)(F)F)cc23)[C@H]1C [Compound 88] | < 100 |  | 
